In US20230310388A1, “Methods and Compositions for Treating Fungal Infections” (Neoculi Pty Ltd, priority 2020, published 2023):
Values joined by “and” are separate entries in the source; they are usually repeats but may differ in a detail not shown here. Equal entries are not always repeated.

Legend:
Candida albicans [1] = experiment: CLSI broth microdilution MIC (Example 3); type: cell-based
Description: (§1) Antifungal minimum inhibitory concentration (MIC) testing was undertaken as recommended by the CLSI. Briefly, antifungal susceptibility tests were performed for amphotericin B, robenidine (NCL812) and 5 robenidine analogs (NCL062, NCL195, NCL219, NCL259, NCL265) by standard broth microdilution method (CLSI) in RPMI 1640. Various concentrations (ranging from high to low) of the selected compounds were prepared in RPMI 1640 medium by double dilution in 96-well microtitre plates. Each well contained an inoculum of approximately 2×10^3 cells/mL. The wells without addition of drugs served as negative (no inoculum) and positive (inoculum only) growth controls. Microtitre plates were incubated at 35° C. for 24-48 hours. […] Antifungal MICs were determined for each isolate in duplicate; if the values obtained were different, the MIC test was repeated a third time. Antifungal susceptibility tests were performed for amphotericin B and NCL analogs by standard broth microdilution method (CLSI). Briefly, various concentrations (ranging from high to low) of the selected compounds were prepared in RPMI 1640 medium by double dilution in the 96-well plates. Each well contained an inoculum of approximately 2×10^3 cells/mL. The wells without addition of drugs served as a negative control. Micro plates were incubated at 35° C. for 48 hour and read spectrophotometrically at 600 nm, using a microplate reader (Multiskan-EX; Thermo Elect. Corp., USA).

Candida parapsilosis = experiment: CLSI broth microdilution MIC (Example 3); type: cell-based; conditions: Candida parapsilosis ATCC 22019
Description: as §1

Candida albicans [2] = experiment: CLSI broth microdilution MIC (Example 4); type: cell-based; conditions: for antifungal activity against the two isolates of Candida albicans: summary in words
How it was run: (§2)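 CLSI broth microdilution in RPMI 1640 with two-fold compound dilutions and inoculum about 2×10^3 cells/mL. Plates incubated 35° C for 24-48 hours; MICs determined in duplicate, with a third test when the duplicates differed.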

Cryptococcus neoformans [3] = experiment: CLSI broth microdilution MIC (Example 4); type: cell-based
How it was run: as §2

Candida albicans [4] = experiment: CLSI broth microdilution MIC (Example 5); type: cell-based; conditions: for activity against one or more isolates of Cryptococcus neoformans and Candida albicans: summary in words
Description: (§3) Antifungal minimum inhibitory concentration (MIC) testing was undertaken as recommended by the CLSI. Briefly, antifungal susceptibility tests were performed for amphotericin B, robenidine (NCL812) and robenidine analogs (NCL23, NCL24, NCL97, NCL113, NCL115, NCL195, NCL219, NCL220, NCL259, NCL265) by standard broth microdilution method (CLSI) in RPMI 1640. Various concentrations (ranging from high to low) of the selected compounds were prepared in RPMI 1640 medium by double dilution in 96-well microtitre plates. Each well contained an inoculum of approximately 2×10^3 cells/mL. The wells without addition of drugs served as negative (no inoculum) and positive (inoculum only) growth controls. Microtitre plates were incubated at 35° C. for 24-48 hours. […] Antifungal MICs were determined for each isolate in duplicate; if the values obtained were different, the MIC test was repeated a third time.

Cryptococcus neoformans [5] = experiment: CLSI broth microdilution MIC (Example 5); type: cell-based
Description: as §3

Candida albicans [6] = experiment: CLSI broth microdilution MIC (Example 6); type: cell-based
Description: (§4) Antifungal minimum inhibitory concentration (MIC) testing was undertaken as recommended by the CLSI (1). Briefly, antifungal susceptibility tests were performed for amphotericin B, robenidine (NCL812) and 10 robenidine analogs (NCL023, NCL024, NCL097, NCL113, NCL115, NCL195, NCL219, NCL220, NCL259, NCL265) by standard broth microdilution method (CLSI) in RPMI 1640. Various concentrations (ranging from high to low) of the selected compounds were prepared in RPMI 1640 medium by double dilution in 96-well microtitre plates. Each well contained an inoculum of approximately 2×10^3 cells/mL. The wells without addition of drugs served as negative (no inoculum) and positive (inoculum only) growth controls. Microtitre plates were incubated at 35° C. for 24-48 hours. […] Antifungal MICs were determined for each isolate in duplicate; if the values obtained were different, the MIC test was repeated a third time.

Cryptococcus neoformans [7] = experiment: CLSI broth microdilution MIC (Example 6); type: cell-based
Description: as §4

C. gattii = experiment: CLSI broth microdilution MIC (Example 6); type: cell-based, Cryptococcus gattii
Description: as §4

[8] = tested on: Candida albicans ATCC14053; experiment: Broth micro-dilution screen at 16 μg/mL and MIC (Example 9); type: cell-based; conditions: for MIC: C. albicans ATCC14053, test range 0.25-64 μg/mL, duplicate; for Screen at 16 μg/mL: single concentration 16 μg/mL, Growth or No growth of C. albicans ATCC14053
Description: The antifungal activity of 201 NCL analogs against Candida albicans ATCC14053 in vitro was investigated. A broth micro-dilution method was used, according to CLSI guidelines as described. NCL analogs were dissolved in DMSO and originally screened at a single concentration of 16 μg/mL.

[9] = Candida albicans ATCC 90028, 1st
[10] = Candida albicans ATCC 90028, 2nd
[11] = clinical isolate C. albicans 12-93301752 Azole Resistant
[12] = clinical isolate C. albicans 14-90045999 Azole Resistant
[13] = clinical isolate C. albicans 15-45171061
[14] = clinical isolate C. albicans 15-91329871
[15] = clinical isolate C. albicans 16-24136919 Azole Resistant
[16] = clinical isolate C. albicans 16-46177400
[17] = clinical isolate C. albicans 16-90050810
[18] = clinical isolate C. albicans 16-90054237
[19] = clinical isolate C. albicans 18-144-00196
[20] = clinical isolate C. albicans 18-148-08188 Azole Resistant
[21] = human clinical isolate C. neoformans serotype A/D hybrid
[22] = human clinical isolate C. neoformans var grubii 16-90050434
[23] = human clinical isolate C. neoformans var grubii 17-90028233
[24] = human clinical isolate C. neoformans var grubii 17-93996464
[25] = human clinical isolate C. neoformans var grubii 17-93996964
[26] = human clinical isolate C. gatti 17-90232099
[27] = human clinical isolate C. gattii 16-90050373
[28] = human clinical isolate C. gattii 17-90028211
[29] = human clinical isolate C. gattii 17-90028217
[30] = human clinical isolate C. gattii 17-90028242

[H]/N=C(\N)NN=C(CC1CCCCC1)c1ccc(Cl)cc1 [NCL259]
No growth: Screen at 16 μg/mL [8]
2 µg/mL: MIC at 24-48 hours (Cryptococcus neoformans [3]; Cryptococcus neoformans SA1) | MIC at 24-48 hours (Cryptococcus neoformans [3]; Cryptococcus neoformans SA2) | MIC (Cryptococcus neoformans [5]; Cryptococcus neoformans SA1) | MIC (Cryptococcus neoformans [5]; Cryptococcus neoformans SA2) | MIC (Cryptococcus neoformans [7]; Cryptococcus neoformans SA1) | MIC (Cryptococcus neoformans [7]; Cryptococcus neoformans SA2)
high antifungal activity: antifungal activity against the two isolates of Candida albicans (Candida albicans [2])
8 µg/mL: MIC (Candida albicans [1]; [10]) | MIC (Candida albicans [4]; [13]) | MIC (Candida albicans [4]; [15]) | MIC (Cryptococcus neoformans [7]; [21]) | MIC (Cryptococcus neoformans [7]; [22]) | MIC (Cryptococcus neoformans [7]; [23]) | MIC (Cryptococcus neoformans [7]; [25]) | MIC (C. gattii; [26]) | MIC (C. gattii; [27]) | MIC (C. gattii; [28]) | MIC (C. gattii; [30])
8 µg/mL and 16 µg/mL: MIC (Cryptococcus neoformans [7]; [24]) | MIC (C. gattii; [29]) | MIC [8]
16 µg/mL: MIC at 24-48 hours (Candida albicans [2]; Candida albicans ATCC 90028) | MIC at 24-48 hours (Candida albicans [2]; Candida albicans SA3) | MIC (Candida albicans [4]; C. albicans SA3) | MIC (Candida albicans [4]; Candida albicans ATCC 90028) | MIC (Candida albicans [4]; [11]) | MIC (Candida albicans [6]; C. albicans SA3) | MIC (Candida albicans [6]; Candida albicans ATCC 90028)
32 µg/mL: MIC (Candida albicans [4]; [18])
>16 µg/mL: MIC (Candida albicans [4]; [12]) | MIC (Candida albicans [4]; [14]) | MIC (Candida albicans [4]; [16]) | MIC (Candida albicans [4]; [17]) | MIC (Candida albicans [4]; [19]) | MIC (Candida albicans [4]; [20])
highly active: activity against one or more isolates of Cryptococcus neoformans and Candida albicans (Candida albicans [4])
4 µg/mL: MIC (Candida albicans [1]; [9]) | MIC (Candida albicans [1]; Candida albicans, 1st) | MIC (Candida albicans [1]; Candida albicans, 2nd) | MIC (Candida parapsilosis; 1st) | MIC (Candida parapsilosis; 2nd)

[H]/N=C(\N)NN=C(CCCCCC)c1ccc(Cl)cc1 [NCL265]
16 µg/mL: MIC (Candida albicans [4]; [12]) | MIC (Candida albicans [4]; [14]) | MIC (Candida albicans [4]; [16]) | MIC (Candida albicans [4]; [17]) | MIC (Candida albicans [4]; [18]) | MIC (Candida albicans [4]; [20])
2 µg/mL: MIC (Candida albicans [1]; [9]) | MIC (Candida albicans [1]; [10]) | MIC (Candida albicans [1]; Candida albicans, 1st) | MIC (Candida parapsilosis; 1st) | MIC (Candida parapsilosis; 2nd) | MIC (Candida albicans [4]; [11]) | MIC [8]
1 µg/mL: MIC at 24-48 hours (Cryptococcus neoformans [3]; Cryptococcus neoformans SA1) | MIC at 24-48 hours (Cryptococcus neoformans [3]; Cryptococcus neoformans SA2) | MIC (Cryptococcus neoformans [5]; Cryptococcus neoformans SA1) | MIC (Cryptococcus neoformans [5]; Cryptococcus neoformans SA2) | MIC (Cryptococcus neoformans [7]; Cryptococcus neoformans SA1) | MIC (Cryptococcus neoformans [7]; Cryptococcus neoformans SA2)
>16 µg/mL: MIC (Candida albicans [4]; [19])
4 µg/mL: MIC (Candida albicans [1]; Candida albicans, 2nd) | MIC (Candida albicans [4]; [15]) | MIC (Cryptococcus neoformans [7]; [22]) | MIC (C. gattii; [29])
high antifungal activity: antifungal activity against the two isolates of Candida albicans (Candida albicans [2])
highly active: activity against one or more isolates of Cryptococcus neoformans and Candida albicans (Candida albicans [4])
8 µg/mL and 16 µg/mL: MIC (C. gattii; [28])
8 µg/mL: MIC at 24-48 hours (Candida albicans [2]; Candida albicans ATCC 90028) | MIC at 24-48 hours (Candida albicans [2]; Candida albicans SA3) | MIC (Candida albicans [4]; C. albicans SA3) | MIC (Candida albicans [4]; Candida albicans ATCC 90028) | MIC (Candida albicans [4]; [13]) | MIC (Candida albicans [6]; C. albicans SA3) | MIC (Candida albicans [6]; Candida albicans ATCC 90028) | MIC (Cryptococcus neoformans [7]; [21]) | MIC (Cryptococcus neoformans [7]; [23]) | MIC (Cryptococcus neoformans [7]; [24]) | MIC (Cryptococcus neoformans [7]; [25]) | MIC (C. gattii; [26]) | MIC (C. gattii; [27]) | MIC (C. gattii; [30])
No growth: Screen at 16 μg/mL [8]
